# Test results: US10364222B2, “Cyclic amine derivative and medical use thereof” (Toray Industries, Inc., priority 2016, dated 2019)
# Experiments:
# [1] = system: oxazolone-induced mouse atopic dermatitis model; assay: Oxazolone-induced mouse atopic dermatitis model; format: in vivo; conditions: BALB/c mice; 10 mg/kg orally once daily for 15 days from the sensitization day; vs vehicle, Student's t-test P<0.05
# Description: Using increase in the ear thickness as an index of exacerbation of symptoms, the effect of the cyclic amine derivative (I) or a pharmacologically acceptable salt thereof in an oxazolone-induced mouse atopic dermatitis model was evaluated. The oxazolone-induced mouse atopic dermatitis model was prepared by a partially modified method by Nakajima et al. (Journal of Investigative Dermatology, 2014, Vol. 134, p. 2122-2130).
# BALB/c mice (female, 7 weeks old) (Charles River Laboratories Japan, Inc.) were used at 8 or 9 weeks old after preliminary breeding. To the back of the mice, 25 μL of a 3 w/v % oxazolone solution dissolved in ethanol was applied to sensitize the mice. Every other day from 5 days to 13 days after the sensitization, 10 μL each of a 0.6 w/v % oxazolone solution dissolved in ethanol was applied to both sides of the right auricle of the sensitized mice to induce inflammation.
# The test compound at a dose of 10 mg/kg was administered to the mice once daily for 15 days from the sensitization day to 14 days after sensitization. As the test compound, the compound of Example 20, the compound of Example 29, and the compound of Example 57 were used. The compound of Example 20, the compound of Example 29, and the compound of Example 57 were suspended in a 0.5 w/v % methylcellulose solution and orally administered. The group in which the compound of Example 20 was administered to mice was defined as the Example-20 compound administration group, the group in which the compound of Example 29 was administered was defined as the Example-29 compound administration group, and the group in which the compound of Example 57 was administered was defined as the Example-57 compound administration group. In the vehicle administration group, a vehicle of each test compound (0.5 w/v % methylcellulose solution) was similarly administered.
# The right ear thickness before application of the oxazolone solution (before sensitization) on the sensitization day and the right ear thickness on the next day of final induction were measured with a digital micrometer (Mitutoyo Corporation). […]
# [2] = system: DNFB-induced mouse allergic dermatitis model; assay: DNFB-induced mouse allergic dermatitis model; format: in vivo; conditions: BALB/c mice; 10 mg/kg orally one hour before induction; 24th hour after induction; vs vehicle, Student's t-test P<0.05
# Description: Using increase in the ear swelling rate as an index of exacerbation of symptoms, the effect of the cyclic amine derivative (I) or a pharmacologically acceptable salt thereof in a DNFB-induced mouse allergic dermatitis model was evaluated. The DNFB-induced mouse allergic dermatitis model was prepared by a partially modified method by Curzytek et al. (Pharmacological Reports, 2013, Vol. 65, p. 123′7-1246).
# BALB/c mice (female, 6 weeks old) (Charles River Laboratories Japan, Inc.) were used at 7 weeks old after preliminary breeding. To the back of the mice, 25 μL of a 0.5 v/v % DNFB solution dissolved in acetone:olive oil (4:1) was applied. The next day, the same operation was repeated to sensitize the mice. Four days after the sensitization, 10 μL each of a 0.2 v/v % DNFB solution dissolved in acetone:olive oil (4:1) was applied to both sides of the right auricle of the sensitized mice to induce inflammation.
# One hour before induction, the compound of Example 20, the compound of Example 29, or the compound of Example 57 was administered at a dose of 10 mg/kg to the mice. The compound of Example 20, the compound of Example 29, and the compound of Example 57 were suspended in a 0.5 w/v % methylcellulose solution and orally administered. The group in which the compound of Example 20 was administered to mice was defined as the Example-20 compound administration group, the group in which the compound of Example 29 was administered was defined as the Example-29 compound administration group, and the group in which the compound of Example 57 was administered was defined as the Example-57 compound administration group. […]
# The right ear thickness before application of the DNFB solution (before induction) on the induction day and the right ear thickness at the 24th hour after induction were measured with a digital micrometer (Mitutoyo Corporation). The swelling rate of the auricle was calculated by Formula 3 and used as an index of the drug efficacy evaluation. […]
Compound,"change in the ear thickness (right ear, next day of final induction − before sensitization) [1]",ear swelling rate (%) [2]
"CN(CC(=O)N1CCCC[C@@H]1C(=O)Nc1ccc(-c2ccccc2OC(F)(F)F)c(Cl)c1)S(C)(=O)=O [Example 29, (R)-N-(2-chloro-2′-(trifluoromethoxy)-[1,1′-biphenyl]-4-yl)-1-(2-(N-methylmethylsulfonamide)acetyl)piperidine-2-carboxamide]",statistically significantly suppressed,statistically significantly suppressed
"O=C(Nc1ccc(-c2ccccc2OC(F)(F)F)c(Cl)c1)[C@H]1CCCCN1C(=O)Cn1cnnn1 [Example 57, (R)-1-(2-(1H-tetrazol-1-yl)acetyl)-N-(2-chloro-2′-(trifluoromethoxy)-[1,1′-biphenyl]-4-yl)piperidine-2-carboxamide]",statistically significantly suppressed,statistically significantly suppressed
"CC(=O)N1CCCC[C@@H]1C(=O)Nc1ccc(-c2ccccc2OC(F)(F)F)c(Cl)c1 [Example 20, (R)-1-acetyl-N-(2-chloro-2′-(trifluoromethoxy)-[1,1′-biphenyl]-4-yl)piperidine-2-carboxamide]",statistically significantly suppressed,statistically significantly suppressed
